Here are results for ten compounds from PMC6332183, “α-Glucosidase Inhibitors from Vauquelinia corymbosa” (Molecules, 2015).

Assay [1] addresses T1, yeast α-glucosidase (Saccharomyces cerevisiae, UniProt P53341). Nature of the assay: kinetic analysis (Lineweaver-Burk) with yeast α-glucosidase. The class given is biochemical. Conditions: Lineweaver-Burk plot.
Experimental: (§3) The mode of inhibition was determined by the Lineweaver-Burk plots. The inhibition constants were calculated using the following equation [36]: (2) v=Vmax×S/Km(1+[I]/Ki)+S(1+[I]/αKi) where v is the initial velocity in absence and presence of inhibitor; S and I are concentration of substrate and inhibitor, respectively; Vmax is the maximum velocity; Km is the Michaellis-Menten constant; Ki is the competitive inhibition constant and αKi is the uncompetitive inhibition constant. The kinetic data was analyzed using a computer program for nonlinear regressions (Graph Pad Prism 5.0, GraphPad Software, Inc., La Jolla, CA, USA).
In assay [2] the test system is small intestinal rat α-glucosidase. Nature of the assay: kinetic analysis (Lineweaver-Burk) with small intestinal rat α-glucosidase.
Experimental: as §3
Assay [3] concerns rat small intestinal α-glucosidases. In words: rat small intestinal α-glucosidase inhibitory assay (pNPG). It is filed as biochemical. The method, then:
(§1) Aliquots of 0–10 μL of testing materials (triplicated) were incubated for 10 min with 20 μL of an enzyme solution of yeast α-glucosidase (Sigma-Aldrich, 0.4 units/mL in PBS) or mammalian α-glucosidase (Sigma-Aldrich, 40 mg). The mammalian enzyme was separated from rat intestinal acetone powder, which was hand homogenized using 1 mL of ice-cold PBS. After sonicating during ten min, the content was centrifuged at 6400 rpm for 10 min (Microfuge Qualitron, Inc., Albany, NY, USA). The supernatant was recovered and used for the in vitro assay.
(§2) After incubation with the enzymes 10 μL of p-nitrophenyl α-D-glucopyranoside (pNPG 5 mM and 10 mM in PSB, respectively) were added and then incubated for 20 min at 37 °C. Then, absorbances were determined in a BIO-RAD microplate reader model 680 at 405 nm.

Assay [4] addresses T1, yeast α-glucosidase. In words: yeast α-glucosidase inhibitory assay (pNPG, spectrophotocolorimetric). The class given is biochemical. As for the experimental part:
as §1, §2

For assay [5], the system named is rat small intestinal α-glucosidases. Also on record: method as in doi:10.1016/j.fshw.2014.11.003. The following applies: values taken from reference; ref [22]; cited from earlier work.
The mark [6] stands for this setting: mean ± SD of triplicate experiments, read-out: Rat Small Intestinal IC50.

Read-outs that look alike come from different tables or passages of the source. Marks after values point to notes of the source that are not given here.

T1 sequence (P53341 whole entry): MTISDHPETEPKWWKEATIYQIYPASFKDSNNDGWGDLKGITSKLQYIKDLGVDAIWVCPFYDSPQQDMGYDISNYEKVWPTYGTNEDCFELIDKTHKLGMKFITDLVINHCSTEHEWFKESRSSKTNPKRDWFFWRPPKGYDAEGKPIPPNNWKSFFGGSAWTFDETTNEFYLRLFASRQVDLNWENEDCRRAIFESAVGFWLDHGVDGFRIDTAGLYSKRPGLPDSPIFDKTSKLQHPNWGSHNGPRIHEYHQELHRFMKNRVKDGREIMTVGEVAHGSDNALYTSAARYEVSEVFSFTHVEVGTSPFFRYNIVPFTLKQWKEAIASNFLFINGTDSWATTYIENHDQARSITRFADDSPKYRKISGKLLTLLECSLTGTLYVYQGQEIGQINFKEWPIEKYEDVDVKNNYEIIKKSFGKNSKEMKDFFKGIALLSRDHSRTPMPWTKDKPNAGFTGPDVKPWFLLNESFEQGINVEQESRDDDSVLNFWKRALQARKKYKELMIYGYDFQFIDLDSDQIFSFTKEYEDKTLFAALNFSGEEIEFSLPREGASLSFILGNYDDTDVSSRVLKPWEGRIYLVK

Usually Ki stands for the equilibrium dissociation constant of an inhibitor or competing ligand from its target. Usually IC50 stands for the point on the concentration scale where inhibition reaches its midpoint. In the case of `O=C(OC[C@H]1O[C@@H](Oc2c(-c3ccc(O)c(O)c3)oc3cc(O)cc(O)c3c2=O)[C@H](O)[C@@H](O)[C@H]1O)c1ccccc1` [Compound 6, quercetin-3-O-(6′′-benzoyl)-β-galactoside], at yeast α-glucosidase [1], the “mode of inhibition, yeast α-glucosidase” value is on record as “mixed-type inhibitor”. Also, the “mode of inhibition, rat α-glucosidase” value in assay [2] (Lineweaver-Burk plot) is recorded as “mixed-type inhibitor”. Further, in assay [2] (read-out: inhibition constant Ki, rat enzyme (abstract), mixed-type inhibition), the Ki is 212 µM. The “Rat Small Intestinal Maximum Inhibition (%)” value in assay [3] is recorded as 75.8%. In addition, the half-maximal inhibitory concentration (IC50) in assay [3] (setting [6]) came out at 0.43 ± 0.03 mM; in assay [3] (read-out: IC50, mammalian enzyme), 0.437 mM.

Turning to `O=c1c(O[C@@H]2O[C@H](CO)[C@H](O)[C@H](O)[C@H]2O)c(-c2ccc(O)c(O)c2)oc2cc(O)cc(O)c12` [Compound 3, hyperoside], the “Rat Small Intestinal Maximum Inhibition (%)” value in assay [3] is 65.1%. For the same compound, the IC50 in assay [3] (setting [6]) is 1.98 ± 0.15 mM.

With `C[C@H]1O[C@H](O[C@H]2[C@H](O)[C@@H](O)[C@@H](O[C@H]3[C@H](O)[C@@H](O)C(O)O[C@@H]3CO)O[C@@H]2CO)[C@H](O)[C@@H](O)[C@@H]1N[C@H]1C=C(CO)[C@@H](O)[C@H](O)[C@H]1O` (stereo partly shown) [Acarbose, acarbose, reference compound], the “Yeast Maximum Inhibition (%)” value on yeast α-glucosidase [4] is recorded as 89.7%. Further, the “Rat Small Intestinal Maximum Inhibition (%)” value in assay [3] is given as 80.2%. Moreover, the IC50 in assay [3] (setting [6]) was determined as 0.1 ± 0.003 mM.

As to `COc1ccc(O[C@@H]2O[C@H](CO)[C@@H](O)[C@H](O)[C@H]2O)cc1` [Compound 8, methylarbutin], the “Rat Small Intestinal % Inhibition obtained with 10.0 mM of inhibitor” value in assay [3] is reported as 39.3 ^d %.

For the compound quercitrin [Compound 5], at yeast α-glucosidase [4], the “Yeast Maximum Inhibition (%)” value was 45.0%. In assay [3], the “Rat Small Intestinal Maximum Inhibition (%)” value was determined as 59.7%. Further, in assay [3] (setting [6]), the IC50 came out at 3.34 ± 0.38 mM.

On to `N#C[C@H](O[C@@H]1O[C@H](CO)[C@@H](O)[C@H](O)[C@H]1O)c1ccccc1` [Compound 1, prunasin], for which the “Rat Small Intestinal % Inhibition obtained with 10.0 mM of inhibitor” value in assay [3] was 44.5 ^d %.

For the compound `O=c1c(O[C@@H]2O[C@H](CO)[C@@H](O)[C@H](O)[C@H]2O)c(-c2ccc(O)c(O)c2)oc2cc(O)cc(O)c12` [Compound 4, isoquercetin], the “Rat Small Intestinal Maximum Inhibition (%)” value in assay [3] is 71.0%. Moreover, the IC50 in assay [3] (setting [6]) came to 1.63 ± 0.11 mM.

On to `Oc1cc(O)c2c(c1)O[C@@H](c1ccc(O)c(O)c1)[C@@H](O)C2` [Compound 2, (−)-epi-catechin], for which the “Rat Small Intestinal % Inhibition obtained with 10.0 mM of inhibitor” value in assay [3] is listed as 15.2 ^d %.

As for `CC(=O)c1ccc(O[C@@H]2O[C@H](CO)[C@@H](O)[C@H](O)[C@H]2O)cc1` [Compound 7, picein], the “Rat Small Intestinal Maximum Inhibition (%)” value in assay [3] turned out to be 52.6%. Further, the IC50 in assay [3] (setting [6]) was determined as 10.7 ± 0.96 mM.

As for `O=c1c(O)c(-c2ccc(O)c(O)c2)oc2cc(O)cc(O)c12` [Compound 9, quercetin], the IC50 in assay [5] is 216 µM.
